Patent US11504381B1 (priority 2021, dated 2022)

How the values were obtained:
recombinant MDM2 protein [1] = biological target: T1, recombinant MDM2 protein (Homo sapiens (Human), UniProt Q00987); conditions: competitive binding vs fluorescently labeled peptide probe, 10% DMSO, pH 7.2; read-out: Fluorescence Polarization Assay KI
Protocol: The compounds binding to MDM2 were determined by a quantitative fluorescence polarization binding assay using a recombinant MDM2 protein and fluorescently labeled peptide probes using a BioTek Cytation 5 machine. Compounds were tested in 10% DMSO, 100 mM potassium phosphate pH 7.2, 100 ug/ml bovine γ-globulin, 0.02% (w/v) sodium azide and 0.01% (v/v) triton X-100. KI values of tested compounds were determined in a dose-dependent competitive binding experiment by fitting the sigmoidal dose-dependent FP increases as a function of […] concentrations using Graphpad Prism software.

recombinant MDM2 protein [2] = biological target: T1, recombinant MDM2 protein; assay: biochemical; type: binding
Protocol: Qualitative evaluation of compound binding to MDM2 was determined using a fluorescence-based thermal shift assay with a Roche LC480 lightcycler. Each experiment was performed in ˜30 mins with ramping up of temperature to monitor thermal denaturation of MDM2. Compounds at 0.16 mM, 0.08 mM and 0.04 mM were added to recombinant MDM2 protein and SYPRO orange dye in 5% DMSO 50 mM Bis-Tris Propane pH 8.0 and 100 mM NaCl. Positive thermal shift was indicative of compound binding to the proteins of interest.

T1 sequence (Q00987 whole entry): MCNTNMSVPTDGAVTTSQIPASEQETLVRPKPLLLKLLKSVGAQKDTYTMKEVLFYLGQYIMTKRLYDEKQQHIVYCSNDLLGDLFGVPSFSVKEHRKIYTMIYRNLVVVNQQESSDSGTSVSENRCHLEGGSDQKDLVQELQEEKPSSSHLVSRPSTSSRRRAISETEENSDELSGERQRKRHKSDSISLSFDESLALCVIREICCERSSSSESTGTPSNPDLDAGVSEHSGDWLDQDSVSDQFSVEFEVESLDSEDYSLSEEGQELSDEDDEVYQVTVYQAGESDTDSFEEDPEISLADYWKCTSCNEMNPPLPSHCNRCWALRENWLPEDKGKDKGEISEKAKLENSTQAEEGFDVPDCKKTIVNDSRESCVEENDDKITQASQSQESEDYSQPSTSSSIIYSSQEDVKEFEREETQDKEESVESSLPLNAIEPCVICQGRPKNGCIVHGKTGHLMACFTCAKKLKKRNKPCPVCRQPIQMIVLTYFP

`CC(=O)Nc1cc(C(F)(F)F)cnc1N1CCN(CC(=O)O)CC1c1ccc(Cl)cc1` (stereo not shown) [Compound 2, 2-(4-(3-acetamido-5-(trifluoromethyl)pyridin-2-yl)-3-(4-chlorophenyl)piperazin-1-yl)acetic acid] showed a Ki (recombinant MDM2 protein [1]) of 118 µM, a ΔTm at 40 µM (recombinant MDM2 protein [2]; read-out: Thermal Shift 0.04 mM) of 0 °C and a ΔTm at 80 µM (recombinant MDM2 protein [2]; read-out: Thermal Shift 0.08 mM) of 0 °C. It also gave a ΔTm at 160 µM (recombinant MDM2 protein [2]; read-out: Thermal Shift 0.16 mM) of 0.6 °C.
